Reference: patent US9388202B2, “Luminescent probes for biological labeling and imaging, method for preparing same” (CENTRE NATIONAL DE LA RECHERCHE SCIENTIFIQUE, priority 2011, dated 2016)
“And” between values parts separate entries of the source, which are not always exact repeats. Equal values may be shown once.

Legend:
Assay type in all cases: physicochemical
[1] = Absorption properties of the terbium and europium complexes in TRIS/HCl buffer; conditions: 0.01M TRIS/HCl buffer at pH = 7.0
Description: By way of example, all of the absorption and emission properties of the terbium and europium complexes synthesized from the ligands (I-1) to (I-4) in accordance with the invention are summarized in Table 1 below: […]

[2] = Emission properties: luminescence lifetime and quantum luminescence yield in water and D2O; conditions: for Emission τ (luminescence lifetime): error estimated ±5%; for Emission φ (quantum luminescence yield): error estimated ±15%
Description: Their optical luminescence properties, the luminescence lifetimes and the brightness properties are exceptional, with quantum yields of about 38% for Tb, 18% for Eu and lifetimes of the excited states of greater than 3 milliseconds for the Tb(I-3) and Tb(I-4) complexes.
By way of example, all of the absorption and emission properties of the terbium and europium complexes synthesized from the ligands (I-1) to (I-4) in accordance with the invention are summarized in Table 1 below:
The parameters φ and τ represent, respectively, the quantum luminescence yields and the luminescence lifetimes. They may be measured in water and in D2O.

[3] = Stability of terbium complexes (luminescence lifetime) in buffers with ligands capable of decomplexing the lanthanide ions; conditions: for stability: various aqueous media
Procedure: By way of example, the stability of the terbium complexes synthesized from the ligands (I-1) to (I-4) in accordance with the invention is given in Table 2 below. Various buffers in the presence of ligands capable of decomplexing the lanthanide ions were tested. For comparative purposes, Table 2 also gives the stability of a terbium complex TbL4 of the prior art corresponding to the following formula: […]

[4] = Tris 50 mM - Serum 50%, pH = 7.0
[5] = Tris 0.1M - EDTA 10 mM, pH = 7.0
[6] = Tris 0.1M - KF 400 mM, pH = 7.0

Compound | Absorption λabs [1] | Emission τ (luminescence lifetime) ([2]; D2O) [ms] | Emission φ (quantum luminescence yield) ([2]; D2O) [%] | Emission τ (luminescence lifetime) ([2]; H2O) [ms] | Emission φ (quantum luminescence yield) ([2]; H2O) [%] | τ ([3]; H2O, estimated error ±5%) [ms] | τ ([3]; Phosphate 0.1M, pH = 7.0) [ms] | τ [3, 4] [ms] | τ [3, 5] [ms] | τ [3, 6] [ms] | τ ([3]; Tris 0.1M, pH = 7.0) [ms] | stability [3]
CCOP(=O)([O-])CN(CC(=O)[O-])Cc1cc(C#Cc2ccc(C(=O)NCCCC(=O)[O-])c3ccccc23)cc(CN(CC(=O)[O-])CP(=O)([O-])OCC)n1.[Eu+3].[Na+].[Na+] [Eu(I-1)] | 266 nm and 349 nm | 2.4 | 24 | 1.5 | 16 |  |  |  |  |  |  | 
CCOP(=O)([O-])CN(CC(=O)[O-])Cc1cc(C#Cc2ccc(C#CCCCCC(=O)[O-])c3ccccc23)cc(CN(CC(=O)[O-])CP(=O)([O-])OCC)n1.[Eu+3].[Na+].[Na+] [Eu(I-2)] | 265 nm and 347 nm | 2.4 | 26 | 1.6 | 17 |  |  |  |  |  |  | 
CCOP(=O)([O-])CN(Cc1cc(C#Cc2ccc(C(=O)NCCCC(=O)[O-])c3ccccc23)cc(CN(CP(=O)([O-])OCC)CP(=O)([O-])OCC)n1)CP(=O)([O-])OCC.[Eu+3].[Na+].[Na+] [Eu(I-3)] | 270 nm and 352 nm | 2.5 | 22 | 1.7 | 18 |  |  |  |  |  |  | 
CCOP(=O)([O-])CN(Cc1cc(C#Cc2ccc(C#CCCCCC(=O)[O-])c3ccccc23)cc(CN(CP(=O)([O-])OCC)CP(=O)([O-])OCC)n1)CP(=O)([O-])OCC.[Eu+3].[Na+].[Na+] [Eu(I-4)] | 268 nm and 350 nm | 2.5 | 24 | 1.6 | 17 |  |  |  |  |  |  | 
CCOP(=O)([O-])CN(CC(=O)[O-])Cc1cc(C#Cc2ccc(C(=O)NCCCC(=O)[O-])c3ccccc23)cc(CN(CC(=O)[O-])CP(=O)([O-])OCC)n1.[Na+].[Na+].[Tb+3] [Tb(I-1)] | 268 nm and 348 nm | 3.1 | 46 | 2.8 | 35 | 2.8 | 2.7 | 2.6 | 2.6 | 2.6 | 2.7 | 
CCOP(=O)([O-])CN(CC(=O)[O-])Cc1cc(C#Cc2ccc(C#CCCCCC(=O)[O-])c3ccccc23)cc(CN(CC(=O)[O-])CP(=O)([O-])OCC)n1.[Na+].[Na+].[Tb+3] [Tb(I-2)] | 270 nm and 349 nm | 3.2 | 45 | 2.6 | 32 | 2.6 | 2.5 | 2.4 | 2.4 | 2.5 | 2.5 | 
CCOP(=O)([O-])CN(Cc1cc(C#Cc2ccc(C(=O)NCCCC(=O)[O-])c3ccccc23)cc(CN(CP(=O)([O-])OCC)CP(=O)([O-])OCC)n1)CP(=O)([O-])OCC.[Na+].[Na+].[Tb+3] [Tb(I-3)] | 272 nm and 353 nm | 3.4 | 42 | 3.1 | 38 | 3.1 | 2.9 | 3.0 | 3.0 | 2.9 | 3.0 | excellent stability
CCOP(=O)([O-])CN(Cc1cc(C#Cc2ccc(C#CCCCCC(=O)[O-])c3ccccc23)cc(CN(CP(=O)([O-])OCC)CP(=O)([O-])OCC)n1)CP(=O)([O-])OCC.[Na+].[Na+].[Tb+3] [Tb(I-4)] | 272 nm and 352 nm | 3.5 | 41 | 3.2 | 36 | 3.2 | 3.0 | 3.0 | 3.1 | 3.0 | 3.1 | excellent stability
